Assay results from ChEMBL document CHEMBL4725364, “Discovery of a Copper-Based Mcl-1 Inhibitor as an Effective Antitumor Agent” (J Med Chem, 2020).

Key:
[1] = target: T1, Induced myeloid leukemia cell differentiation protein Mcl-1 (Homo sapiens, UniProt Q07820); experiment: Inhibition of biotinylated Bim peptide (81 to 106 residues) binding to His-tagged Mcl-1 (171 to 327 residues) (unknown origin) expressed in Escherichia coli BL21 (DE3) cells preincubated for 1 hr followed by biotinylated Bim peptide addition measured after 2 hrs by ELISA
T1 sequence (Q07820 whole entry, the tested form may be a part): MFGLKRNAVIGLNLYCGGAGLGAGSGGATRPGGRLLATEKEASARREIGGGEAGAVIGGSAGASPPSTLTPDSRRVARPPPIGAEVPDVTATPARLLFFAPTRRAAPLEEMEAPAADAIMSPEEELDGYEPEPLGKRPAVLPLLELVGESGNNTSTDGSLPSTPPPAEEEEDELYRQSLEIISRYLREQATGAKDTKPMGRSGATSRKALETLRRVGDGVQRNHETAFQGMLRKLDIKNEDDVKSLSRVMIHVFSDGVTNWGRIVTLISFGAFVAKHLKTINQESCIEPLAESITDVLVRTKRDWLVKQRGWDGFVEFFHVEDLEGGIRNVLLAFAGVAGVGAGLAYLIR

K562 = experiment: Cytotoxicity against human K562 cells after 24 hrs by MTT assay; type: functional, cell-based; conditions: K562, 24 h
[2] = target: T1, Induced myeloid leukemia cell differentiation protein Mcl-1; experiment: Inhibition of N-terminal biotin-labeled BIM BH3 peptide (141 to 166 residues) binding to His-tagged Mcl-1 (171 to 327 residues) (unknown origin) expressed in Escherichia coli BL21 (DE3) cells incubated for >=30 mins by […]
LP-1 = experiment: Cytotoxicity against human LP-1 cells after 24 hrs by MTT assay; type: functional, cell-based; conditions: LP-1, 24 h
KMS-12-PE = experiment: Cytotoxicity against human KMS-12-PE cells after 24 hrs by MTT assay; type: functional, cell-based
MM1.S = experiment: Cytotoxicity against human MM1.S cells after 24 hrs by MTT assay; type: functional, cell-based
[3] = Cytotoxicity against human MOLP8 cells after 24 hrs by MTT assay; type: functional, cell-based; conditions: MOLP-8, 24 h
[4] = target: T1, Induced myeloid leukemia cell differentiation protein Mcl-1; experiment: Displacement of Flu-BID/FAM-BID from His-tagged Mcl-1 (171 to 327 residues) (unknown origin) expressed in Escherichia coli BL21 (DE3) cells incubated for 3 hrs by fluorescence polarization assay
NCI-H929 = experiment: Cytotoxicity against human NCI-H929 cells after 24 hrs by MTT assay; type: functional, cell-based; conditions: NCI-H929, 24 h
L-363 = experiment: Cytotoxicity against human L-363 cells after 24 hrs by MTT assay; type: functional, cell-based; conditions: L-363, 24 h

SMILES	IC50 [1] [µM]	IC50 (K562) [µM]	IC50 [2] [µM]	IC50 (LP-1) [µM]	IC50 (KMS-12-PE) [µM]	IC50 (MM1.S) [µM]	IC50 [3] [µM]	Ki [4] [µM]	IC50 (NCI-H929) [µM]	IC50 (L-363) [µM]
c1ccc(OCCn2c3ccccc3c3ccnc(-c4ccccn4)c32)cc1	> 10	> 40	> 10	> 40	> 40	> 40	> 40	> 10	> 40	> 40
c1ccc(-c2nccc3c2[nH]c2ccccc23)nc1	> 10	> 40	> 10	> 40	> 40	> 40	> 40	> 10	> 40	> 40
c1ccc(CCn2c3ccccc3c3ccnc(-c4ccccn4)c32)cc1	> 10	17.9	8.81	18.8	> 40	> 40	21.4	3.13	14.3	24.9
Cc1nn(C)c(COc2ccc(N3CCN(S(=O)(=O)N(C)C)CC3)cc2)c1-c1cccc2c(CCCOc3cccc4ccccc34)c(C(=O)O)n(CCN3CCOCC3)c12	0.0125	13.9	0.0088	10.6	> 40	> 40	9.7	0.0047	8.6	11.8
c1ccc(-c2nccc3c4ccccc4n(CC4CC4)c23)nc1	> 10	> 40	> 10	> 40	> 40	> 40	> 40	> 10	> 40	> 40
CCOCCn1c2ccccc2c2ccnc(-c3ccccn3)c21	> 10	> 40	> 10	> 40	> 40	> 40	> 40	> 10	> 40	> 40
c1ccc(-c2nccc3c4ccccc4n(Cc4ccc5ccccc5c4)c23)nc1	> 10	> 40	8.52	> 40	> 40	> 40	> 40	6.61	> 40	> 40
c1ccc(COCCn2c3ccccc3c3ccnc(-c4ccccn4)c32)cc1	> 10	> 40	> 10	> 40	> 40	> 40	> 40	7.88	> 40	> 40
c1ccc(Cn2c3ccccc3c3ccnc(-c4ccccn4)c32)cc1	> 10	32.8	> 10	> 40	> 40	> 40	> 40	6.13	37.4	> 40
Cc1ccc(Cn2c3ccccc3c3ccnc(-c4ccccn4)c32)cc1	> 10	22.6	9.08	25.8	> 40	> 40	27.5	4.93	17.9	33.5
Fc1ccc(Cn2c3ccccc3c3ccnc(-c4ccccn4)c32)cc1	> 10	28.9	> 10	33.6	> 40	> 40	34.7	5.52	25.4	> 40
CCn1c2ccccc2c2ccnc(-c3ccccn3)c21	> 10	> 40	> 10	> 40	> 40	> 40	> 40	> 10	> 40	> 40
